Some test systems named below: CAKI-1 renal; HT29 colon; IGROV1 ovarian; KM12 colon; LOX IMVI melanoma; NCI/ADR-RES ovarian; SF-268 CNS; SF-295 CNS; SK-MEL-2 melanoma; UACC-257 melanoma.
Holding throughout (assay): inhibition of tumour cell growth, NCI panel, 48 h

This is an account of results in PubChem BioAssay (NCI).

Values joined by “and” are separate entries in the source; they are usually repeats but may differ in a detail not shown here. Identical values can stand only once.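 Grown in 96-well plates, cells were treated for 48 hours with each compound at five concentrations. Insufficient inhibition: endpoint recorded as highest concentration tested. The concentration for 50% growth inhibition is given as GI50. TGI: total growth inhibition.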

On to `COc1cccc(NC(=O)c2sc3nc4c(cc3c2N)C(O)CCC4)c1` (configuration not stated), for which the GI50 in the test with CAKI-1 renal was 0.538 µM; in the test on HT29 colon it was 0.133 µM; in the test with IGROV1 ovarian, 0.383 µM; with KM12 colon it was 0.111 µM; in the test with LOX IMVI melanoma, 0.766 µM; in the test with NCI/ADR-RES ovarian it was 0.206 µM. In addition, the GI50 is 0.496 µM in the test on SF-268 CNS, 0.157 µM in the test with SF-295 CNS, 0.249 µM in the test on SK-MEL-2 melanoma and 28.2 µM in the test with UACC-257 melanoma. The TGI in the test with CAKI-1 renal, with HT29 colon, with IGROV1 ovarian, in the test with KM12 colon, in the test with LOX IMVI melanoma and in the test with NCI/ADR-RES ovarian was above 100 µM each time. The TGI in the test with SF-268 CNS is above 55 µM; with SF-295 CNS it was above 92.2 µM; in the test on SK-MEL-2 melanoma it was above 100 µM; with UACC-257 melanoma it was above 100 µM.

In the case of `Cc1nc(Sc2nc3ccc([N+](=O)[O-])cc3s2)sc1C`, the GI50 in the test on CAKI-1 renal is 1.9 µM; in the test with HT29 colon it was 1.64 µM; with IGROV1 ovarian, 3 µM; in the test on KM12 colon, 3.89 µM; in the test with LOX IMVI melanoma it was 0.221 µM; in the test with NCI/ADR-RES ovarian it was 1.63 µM. In addition, the GI50 in the test on SF-268 CNS is 1.7 µM; with SF-295 CNS it was 13.8 µM; in the test with SK-MEL-2 melanoma, 1.6 µM; with UACC-257 melanoma, 4.62 µM. Besides, the TGI with CAKI-1 renal was 8.03 µM; in the test on HT29 colon, 4.23 µM; in the test with IGROV1 ovarian it was 14.8 µM; in the test with KM12 colon, 14.6 µM; in the test on LOX IMVI melanoma it was 0.932 µM; with NCI/ADR-RES ovarian, 5.45 µM. Also, the TGI in the test with SF-268 CNS is 10.9 µM; with SF-295 CNS, 26.7 µM; in the test with SK-MEL-2 melanoma, 4.53 µM; in the test on UACC-257 melanoma, 16.4 µM.

For `OC(COc1ccccc1)CN1CCCCC1` (configuration not stated), the TGI with CAKI-1 renal, in the test with HT29 colon, with IGROV1 ovarian, with KM12 colon, in the test on LOX IMVI melanoma and in the test on NCI/ADR-RES ovarian was above 100 µM throughout. Also, the TGI in the test on SF-268 CNS, in the test with SF-295 CNS, with SK-MEL-2 melanoma and in the test with UACC-257 melanoma was above 100 µM each time.

Regarding `O=C(Nc1ccc2c(c1)OCCO2)C(=O)c1c[nH]c2ccccc12`, the GI50 with CAKI-1 renal was 1.68 µM; in the test on HT29 colon it was 0.81 µM; with IGROV1 ovarian, 3.09 µM; in the test with KM12 colon, 0.469 µM; in the test with LOX IMVI melanoma, 1.3 µM; in the test with NCI/ADR-RES ovarian it was 0.375 µM. The GI50 was 1.98 µM in the test with SF-268 CNS, 1.33 µM with SF-295 CNS, 2.62 µM in the test on SK-MEL-2 melanoma and above 23.5 µM in the test with UACC-257 melanoma. The TGI in the test on CAKI-1 renal was above 100 µM; in the test with HT29 colon, 3.78 µM; in the test with IGROV1 ovarian, above 72.4 µM; in the test with KM12 colon, above 100 µM; in the test on LOX IMVI melanoma, above 100 µM; in the test with NCI/ADR-RES ovarian, 5.06 µM. Also, the TGI was 37.5 µM in the test with SF-268 CNS, 10.6 µM in the test on SF-295 CNS, 32.9 µM in the test on SK-MEL-2 melanoma and above 100 µM in the test with UACC-257 melanoma.

With `COc1cc(CN(c2ccc(C)cc2)C2OC(=O)c3ccccc32)cc(OC)c1OC` (configuration not stated), the GI50 is 0.472 µM in the test with CAKI-1 renal; 0.355 µM with HT29 colon; 1.29 µM with IGROV1 ovarian; 0.445 µM in the test with KM12 colon; 0.635 µM with LOX IMVI melanoma; 0.389 µM with NCI/ADR-RES ovarian. Moreover, the GI50 is 1.97 µM with SF-268 CNS, 0.322 µM with SF-295 CNS, 0.487 µM in the test with SK-MEL-2 melanoma and 3.41 µM in the test with UACC-257 melanoma. Also, the TGI in the test with CAKI-1 renal, with HT29 colon, with IGROV1 ovarian, with KM12 colon, with LOX IMVI melanoma and in the test on NCI/ADR-RES ovarian was above 100 µM each time. In addition, the TGI in the test with SF-268 CNS, with SF-295 CNS, in the test with SK-MEL-2 melanoma and with UACC-257 melanoma was above 100 µM throughout.

Consider `COc1cc(-c2nccc3cc4c(cc23)OCO4)cc(OC)c1OC`, for which the GI50 with CAKI-1 renal was 2.52 µM; in the test with HT29 colon it was 2.33 µM; in the test on IGROV1 ovarian it was 8.92 µM; in the test on KM12 colon, 2.27 µM; with LOX IMVI melanoma, 6.06 µM; in the test with NCI/ADR-RES ovarian it was 2.74 µM. The GI50 in the test with SF-268 CNS was 5.56 µM; in the test with SF-295 CNS, 2.03 µM; in the test on SK-MEL-2 melanoma it was 3.08 µM; in the test with UACC-257 melanoma, above 100 µM. Besides, the TGI in the test with CAKI-1 renal was 10.5 µM; in the test on HT29 colon, above 100 µM; in the test with IGROV1 ovarian it was above 100 µM; in the test on KM12 colon, above 100 µM; with LOX IMVI melanoma, above 100 µM; with NCI/ADR-RES ovarian, above 100 µM. Moreover, the TGI is above 100 µM in the test on SF-268 CNS, 14.2 µM in the test with SF-295 CNS, above 100 µM in the test on SK-MEL-2 melanoma and above 100 µM with UACC-257 melanoma.

In the case of `COc1ccc(-c2nn3ncccc3c2-c2ccnc(Nc3ccc4c(c3)OCCO4)n2)cc1`, the GI50 with CAKI-1 renal was 2.7 µM; in the test on HT29 colon it was 4.29 µM; in the test with IGROV1 ovarian, 2.17 µM; with KM12 colon it was 5.99 µM; in the test with LOX IMVI melanoma, 3.65 µM; in the test on NCI/ADR-RES ovarian, 7.52 µM. Also, the GI50 was 11.1 µM in the test with SF-268 CNS, above 17.2 µM with SF-295 CNS, 7.39 µM in the test with SK-MEL-2 melanoma and 9.07 µM in the test with UACC-257 melanoma. For the same compound, the TGI is above 24.1 µM with CAKI-1 renal; above 23.8 µM with HT29 colon; above 19.6 µM in the test with IGROV1 ovarian; above 25 µM in the test with KM12 colon; above 25 µM with LOX IMVI melanoma; above 25 µM in the test on NCI/ADR-RES ovarian. Moreover, the TGI in the test with SF-268 CNS was above 25 µM; in the test with SF-295 CNS, above 25 µM; with SK-MEL-2 melanoma, above 21 µM; in the test with UACC-257 melanoma, above 25 µM.

Take `CCc1nn2ncccc2c1-c1ccnc(NC2CC2)n1`: the GI50 was above 22.1 µM in the test on CAKI-1 renal; above 25 µM with HT29 colon; above 25 µM in the test on IGROV1 ovarian; above 25 µM with KM12 colon; above 25 µM with LOX IMVI melanoma; above 25 µM in the test with NCI/ADR-RES ovarian. Moreover, the GI50 with SF-268 CNS, with SF-295 CNS, in the test with SK-MEL-2 melanoma and in the test with UACC-257 melanoma was above 25 µM in each case. The TGI with CAKI-1 renal, with HT29 colon, in the test on IGROV1 ovarian, in the test on KM12 colon, in the test with LOX IMVI melanoma and with NCI/ADR-RES ovarian was above 25 µM each time. The TGI with SF-268 CNS, with SF-295 CNS, in the test on SK-MEL-2 melanoma and with UACC-257 melanoma was above 25 µM each time.

`C=C(CN1c2ccccc2Sc2ccccc21)c1ccc(C(=O)Nc2ccccc2N)cc1`: the GI50 was 8.83 µM in the test with CAKI-1 renal; 11.5 µM in the test on HT29 colon; 28.1 µM in the test with IGROV1 ovarian; 5.84 µM with KM12 colon; above 52.7 µM in the test with LOX IMVI melanoma; 8.77 µM with NCI/ADR-RES ovarian. The GI50 in the test with SF-268 CNS is 25.7 µM; in the test with SF-295 CNS, above 38.3 µM; with SK-MEL-2 melanoma, above 100 µM; with UACC-257 melanoma it was 67.6 µM. Also, the TGI with CAKI-1 renal was above 50.2 µM; in the test with HT29 colon, above 100 µM; in the test on IGROV1 ovarian, above 100 µM; in the test on KM12 colon, above 100 µM; with LOX IMVI melanoma, above 100 µM; in the test with NCI/ADR-RES ovarian, above 100 µM. Also, the TGI in the test on SF-268 CNS, with SF-295 CNS, in the test on SK-MEL-2 melanoma and in the test with UACC-257 melanoma was above 100 µM throughout.

On to `CN(C)CCCCCNc1c2ccccc2nc2cccc([N+](=O)[O-])c12`, for which the TGI with CAKI-1 renal stood at 0.0158 µM; with HT29 colon, 0.00839 µM; in the test on IGROV1 ovarian, 0.00655 µM; in the test on KM12 colon it was 0.0725 µM; in the test on LOX IMVI melanoma it was 0.0113 µM; in the test on NCI/ADR-RES ovarian, 0.0055 µM. Also, the TGI in the test with SF-268 CNS was 0.0125 µM and 0.018 µM; in the test on SK-MEL-2 melanoma, 0.00257 µM; in the test on UACC-257 melanoma, above 0.0231 µM. Besides, the GI50 is 0.00502 µM in the test with HT29 colon, 0.00621 µM with IGROV1 ovarian and 0.0097 µM in the test on SF-295 CNS.

For the compound `COc1ccc(-c2nsc3c2NC(=O)CC3c2cccc(Cl)c2)cc1` (configuration not stated), the GI50 was 0.981 µM with CAKI-1 renal; 0.377 µM in the test on HT29 colon; 3.33 µM in the test with IGROV1 ovarian; 0.743 µM with KM12 colon; 5.57 µM in the test on LOX IMVI melanoma; 0.604 µM with NCI/ADR-RES ovarian. Besides, the GI50 in the test on SF-268 CNS was 8.04 µM; in the test on SF-295 CNS, 1.99 µM; with SK-MEL-2 melanoma it was 0.878 µM; in the test on UACC-257 melanoma, 10.8 µM. Further, the TGI in the test on CAKI-1 renal was 70.1 µM; in the test with HT29 colon, 4.91 µM; with IGROV1 ovarian, above 100 µM; with KM12 colon, above 100 µM; in the test on LOX IMVI melanoma, above 100 µM; in the test on NCI/ADR-RES ovarian it was above 100 µM. Also, the TGI was above 100 µM with SF-268 CNS, 13.5 µM in the test on SF-295 CNS, 9.93 µM in the test on SK-MEL-2 melanoma and above 100 µM with UACC-257 melanoma.

`CC1=C(C#N)C(/C=C(\Cl)c2ccc(F)cc2)C(C#N)=C(C)N1`: the GI50 in the test on CAKI-1 renal, in the test on HT29 colon, in the test on IGROV1 ovarian, with KM12 colon, in the test on LOX IMVI melanoma and with NCI/ADR-RES ovarian was above 100 µM throughout. Also, the GI50 was above 100 µM with SF-268 CNS, 53.7 µM in the test on SF-295 CNS, above 100 µM in the test with SK-MEL-2 melanoma and above 100 µM in the test on UACC-257 melanoma. Moreover, the TGI with CAKI-1 renal, with HT29 colon, with IGROV1 ovarian, with KM12 colon, with LOX IMVI melanoma and in the test on NCI/ADR-RES ovarian was above 100 µM throughout. For the same compound, the TGI in the test with SF-268 CNS, in the test with SF-295 CNS, in the test on SK-MEL-2 melanoma and in the test with UACC-257 melanoma was above 100 µM throughout.
